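Results reflect a 48-hour exposure of cells in 96-well plates to compound at five concentrations. Definition used: TGI = concentration required for complete inhibition of growth.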
Experiments:
Test in all cases: growth of human tumour cells (NCI), 48 h
HCT-15 colon = test system: HCT-15 colon
SW-620 colon = test system: SW-620 colon
OVCAR-8 ovarian = test system: OVCAR-8 ovarian
M14 melanoma = test system: M14 melanoma
HL-60(TB) leukemia = test system: HL-60(TB) leukemia
ACHN renal = test system: ACHN renal
HT29 colon = test system: HT29 colon
T-47D breast = test system: T-47D breast
UO-31 renal = test system: UO-31 renal
MDA-N = test system: MDA-N

| SMILES | TGI (HCT-15 colon) [µM] | TGI (SW-620 colon) [µM] | TGI (OVCAR-8 ovarian) [µM] | TGI (M14 melanoma) [µM] | TGI (HL-60(TB) leukemia) [µM] | TGI (ACHN renal) [µM] | TGI (HT29 colon) [µM] | TGI (T-47D breast) [µM] | TGI (UO-31 renal) [µM] | TGI (MDA-N) [µM] |
| --- | --- | --- | --- | --- | --- | --- | --- | --- | --- | --- |
| O=c1[nH]nc(Nc2ccc(Cl)cc2)c2nnn(C3CCCCC3)c12 | > 100 | > 100 | 34.3 | > 100 | > 100 | > 100 | > 100 | > 100 | > 100 | > 100 |
| O=C(/C=C/c1ccccc1)c1cc(CN2CCOCC2)c(O)c(CN2CCOCC2)c1 | 29.7 | 28.9 | > 100 | 43.2 | 27.4 | 8.26 | > 100 | 48 | 31.3 | 39 |
| Cc1ccc(C(=O)Nc2ccc(CP(=O)(O)O)cc2CP(=O)(O)O)cc1N | > 100 | > 100 | > 100 | > 100 | > 100 | > 100 | > 100 | > 100 | > 100 | > 100 |
| CN(Cc1cnc2nc(N)nc(N)c2n1)c1ccc(C(=O)NC(CCC(=O)O)C(=O)O)c2ccccc12 (configuration not stated) | > 1000 | > 1000 | > 1000 | > 1000 | > 1000 | > 1000 | > 1000 | > 1000 | > 1000 | > 1000 |
| O=C1Nc2noc(=O)nc2NO1 | > 200 | > 200 | > 200 | > 200 | > 200 | > 200 | > 200 | > 200 | > 200 | > 200 |
| O=S(Nc1ccccc1)c1ccc(Cl)cc1 (configuration not stated) | > 100 | > 100 | > 100 | > 100 | > 100 | > 100 | > 100 | > 100 | > 100 | > 100 |
| O=C(N/N=C/c1ccccc1)c1c(F)c(F)c(F)c(F)c1F | > 100 | > 100 | > 100 | > 100 | > 100 | > 100 | > 100 | > 100 | > 100 | > 100 |
| Cc1cc2nc(N3C(=O)/C(=C/Cc4ccco4)N=C3c3ccccc3)sc2cc1C | > 100 | > 100 | > 100 | > 100 | 46.1 | 96.3 | 76.5 | > 100 | > 100 | 30 |
| CC1(C)C(=O)/C(=C/c2ccccc2)C(C)(C)C1(C)C | > 100 | > 100 | > 100 | > 100 | 46.7 | > 100 | > 100 | > 100 | > 100 | > 100 |
| COc1cc2c(cc1OC)C1=C(C=O)c3ccc(OC)c(OC)c3C(O)N1CC2 (configuration not stated) | > 100 | > 100 | – | 78.1 | 75.2 | > 100 | > 100 | 57.9 | > 100 | > 100 |
| COc1cc(C=O)cc(C=Nc2ccc(Br)cc2)c1O | > 100 | > 100 | > 100 | 14.2 | 56.8 | 49.4 | > 100 | > 100 | 50.6 | 35.7 |
| CC(C)(C)C(=O)c1c(O)c2ccccc2c2ccccc2c1=O | > 100 | > 100 | > 100 | > 100 | > 100 | > 100 | > 100 | > 100 | > 100 | > 100 |
| O=C(/C=C\c1ccccc1)Oc1ccc(/C=C2\CCC/C(=C\c3ccc(OC(=O)/C=C\c4ccccc4)cc3)C2=O)cc1 | > 100 | > 100 | > 100 | > 100 | > 100 | > 100 | > 100 | > 100 | > 100 | > 100 |
| Cc1ccc(S(=O)(=O)NC(=O)Nc2ccc(C(=O)O)cc2)cc1 | > 100 | > 100 | > 100 | > 100 | > 100 | > 100 | > 100 | > 100 | > 100 | > 100 |
| CCCCCCCCCCCCCCCCNc1nc(=O)n(C2OC(C)C(O)C2O)cc1F (configuration not stated) | 29.1 | 46.8 | 52.6 | 33.5 | 75.1 | 29 | 31.2 | 43.8 | 27.2 | 39.3 |
| CN(C)c1cccc2c(S(=O)(=O)NCCN)cccc12 | > 100 | > 100 | – | > 100 | > 100 | > 100 | > 100 | > 100 | > 100 | > 100 |
| CCNC(=S)N/N=C(/C)c1cccc(/C(C)=N\NC(=S)NCC)n1 | > 57 | > 100 | 16.9 | 19.9 | 7.9 | > 66.9 | 46.2 | > 45.4 | > 63.6 | > 45.8 |
| CC(C)OC(=O)C(NC(=O)C(CC(=O)OCc1ccccc1)NC(=O)OCc1ccccc1)NC(=O)C1C(C)(C)CCC1(C)C (configuration not stated) | 30.7 | 10.8 | 4.19 | > 57.1 | > 40.4 | 14.7 | 14.3 | > 69.5 | 13.4 | 24.2 |

| SMILES | TGI (HCT-15 colon) [µM] | TGI (SW-620 colon) [µM] | TGI (OVCAR-8 ovarian) [µM] | TGI (M14 melanoma) [µM] | TGI (HL-60(TB) leukemia) [µM] | TGI (ACHN renal) [µM] | TGI (HT29 colon) [µM] | TGI (T-47D breast) [µM] | TGI (UO-31 renal) [µM] | TGI (MDA-N) [µM] |
| --- | --- | --- | --- | --- | --- | --- | --- | --- | --- | --- |
| Cc1cc(NC(=O)NC(=O)c2ccccc2NC(=O)CN(C)C)ccc1Oc1ncc(Br)cn1 | > 100 | > 100 | > 100 | > 57.4 | 12.5 | > 100 | 31.1 | > 100 | > 100 | 0.505 |
| CC(=O)CCC1(C(=O)OCC(C)C)CCCC1=O (configuration not stated) | > 100 | > 100 | > 100 | > 100 | > 100 | > 100 | > 100 | > 100 | > 100 | > 100 |
| COC(=O)Nc1cc(OCCCOC(C)=O)c2[nH]c(C(=O)OC)cc2c1C[C@H](O)CO | > 100 | > 100 | > 100 | > 100 | > 100 | > 100 | > 100 | > 100 | > 100 | > 100 |
| COCc1cc2c(s1)C(=O)C1=C(C2=O)C2(C=C(Br)C(=O)C(Br)=C2)CCN1 | 14.7 | 10.6 | 14.8 | 4.32 | 16.3 | 18 | 12.9 | 9.2 | 25.4 | 3.11 |
| Clc1[nH]nc2ccccc12 | > 100 | > 100 | > 100 | > 100 | > 100 | > 100 | > 100 | > 100 | > 100 | > 100 |
| CC[C@]1(c2ccc3c(c2)OCO3)C=[N+]([O-])O[C@H](OC2CCCC2(c2ccccc2)c2ccccc2)[C@@H]1OC(C)=O (some centres not stated) | 6.18 | > 100 | – | 4.84 | 12.1 | 9.75 | 3.78 | 10.2 | 5.21 | > 30.2 |
| C/C(=N\NC(=S)NC(C)(C)C)c1nc2ncccc2[nH]1 | > 100 | > 100 | > 100 | > 100 | > 21.6 | > 100 | > 100 | > 33.7 | 5.82 | > 100 |
| CC(=O)Oc1cc2c(cc1OCC(F)(F)F)[C@H]1CC[C@]3(C)[C@@H](OC(C)=O)CC[C@H]3[C@@H]1CC2=O | > 88 | > 92.4 | 57 | > 78.6 | 34.7 | 60 | > 63.8 | > 89.1 | 42.2 | > 100 |
| COc1cc(C2c3cc4c(cc3[C@@H](Nc3ccc(F)cc3)C3COC[C@H]23)OCO4)cc(OC)c1O (some centres not stated) | 18.9 | > 25 | > 25 | > 25 | 2.29 | 6.21 | 8.82 | > 25 | 4.57 | > 25 |
| O=C(O)[C@H]1NC[C@H]2C(Br)=NO[C@@H]12 | > 100 | > 100 | > 100 | > 100 | > 100 | > 100 | > 100 | > 100 | > 100 | > 100 |
| Cn1c2c(c3c(=O)[nH]ncc31)Cc1ccccc1-2 | > 100 | 91.2 | 62.8 | 38.9 | 69 | 34.7 | > 100 | 78.2 | 45.1 | 34.8 |
| O=c1[nH]c2c(Nc3c4ccccc4nc4ccccc34)c([N+](=O)[O-])c(Nc3c4ccccc4nc4ccccc34)c([N+](=O)[O-])c2[nH]1 | 6.98 | > 100 | 12.6 | 4.76 | > 23.7 | 4.78 | 3.11 | > 39.1 | 2.76 | 8.49 |
| C[C@H]1CCC/C=C/[C@@H]2C[C@H](OC3OC(CO)C(O)C(O)C3O)C[C@H]2[C@H](O)/C=C/C(=O)O1 (some centres not stated) | > 100 | > 100 | > 100 | > 100 | > 100 | > 100 | > 100 | > 100 | > 100 | > 100 |
| Cc1nnc(SCc2nc(C#N)c(C#N)nc2CSc2nnc(C)s2)s1 | 26.4 | 15.6 | > 100 | 37.6 | 7.74 | 22.5 | 37.2 | 17.3 | 24.1 | 49.9 |
| CC(C)(NO)/C(=N\O)c1ccccc1 | > 10 | > 10 | > 10 | > 10 | > 10 | > 10 | > 10 | > 10 | > 10 | > 10 |
| CC1(C)CCC[C@@]2(C)C1CC[C@@]1(CO)O[C@H](C3=CC(=O)OC3O)C[C@H]12 (some centres not stated) | 23.5 | 22.3 | 36.2 | 31.8 | 4.31 | > 53.5 | 30.6 | 25.8 | 29.2 | 25.8 |
| COc1ccc2oc(=O)c(-c3cc4c(c(C)n3)c(=O)oc3ccc(OC)cc34)cc2c1 | > 100 | > 100 | > 100 | > 100 | > 100 | 86 | > 100 | > 100 | > 100 | > 100 |
